# Reference: patent US4564615A, “Immunoactivator” (SS Pharmaceutical Co., Ltd., priority 1980, dated 1986)
# Where a name gives a salt, the structure may show the parent alone.
# Key:
# Acute toxicity = conditions: mouse, in vivo, ip; intraperitoneal, male mice, 7 days
# Text: Typical compounds used in the immunoactivator according to the invention were each suspended in physiological salt solution and intraperitoneally administered into groups of male mice, each consisting of 5 mice, followed by breeding and observing for 7 days.
# [1] = test system: antibody-producing cells in the spleen; assay: IgM antibody producing action in mice, dose dependence (antibody-producing cells/spleen, SRBC immunization); format: in vivo, CDF1 mice (male, 10 weeks old); conditions: oral; for Number of antibody-producing cells/spleen (average value): 4 days after administration
# [2] = test system: antibody-producing cells in the spleen; assay: IgM antibody producing action in mice, time of administration (FIG. 1); format: in vivo, CDF1 mice (male, 12 weeks old)
# Description: (ii) Groups of CDF1 mice (male, 12 weeks old), each group consisting of 5 mice, were each venously injected with 1×10^8 sheep red blood cells for immunization. The thus injected mice were each orally dosed with a compound of the invention (compound No. 3 in Table 1) at the same day as of the injection (0 day), 1 day, 2 days and 3 days after the injection in an amount of 100 μg/mouse. Four days after the immunization, the number of antibody-producing cells in the spleen cells of each mouse of each group was determined.
# mouse's spleen cells = assay: Antibody-producing action based on cell culture (Mishell & Dutton), FIG. 2; conditions: 0.005-20 μg/ml tested; 4 days culture with 1×10^6 sheep red blood cells
# Text: The action of a compound of the invention on the antibody-producing system with respect to sheep red blood cells was investigated on the basis of the mouse's spleen cell culture according to the Mishell & Dutton's method* and its modification**.
# **Click, R. E., L. Benck & B. J. Alter: Cellular Immunol. 3: 156-160, 1972.
# [3] = test system: delayed-type hypersensitivity; assay: Action on delayed-type hypersensitivity (foot sole swelling, SRBC antigen); format: in vivo, CDF1 mice (male, 12 weeks old); conditions: oral; for Thickness of Sole Swelling (± S.D.): 24 hours after second injection
# Text: In order to evaluate an action of compounds of the invention on cellular immunity which plays the most important role on the protection reaction against viral infection, the action was investigated according to the method of Lagrange et al.* using as an index the effect on the delayed-type hypersensitivity in which sheep red blood cells were provided as antigen**.
# *Lagrange, P. H., G. B. Mackaness & T. E. Miller: J. Exp. Med., 139: 528-542, 1974.
# **Ishizuka, M. T. Matsuda, N. Kanbayashi, S. Fukasawa, T. Takeuchi, T. Aoyagi & H. Umezawa: J. Antibiotics 33: 642-652, 1980.
# That is, groups of CDF1 mice (male, 12 weeks old), each group consisting of 5 mice, were each immunized by being subcutaneously injected with 10^8 sheep red blood cells at the soles of right hind leg and were simultaneously orally dosed with 4 μg-1 mg/mouse of a compound of the invention (compound No. 3 in Table 1). Four days after the administration, 10^8 sheep red blood cells were subcutaneously injected into each mouse at the sole of the left hind leg, thereby causing the reaction. 24 hours after the injection, the thickness of the foot sole was measured and degrees of swelling of the soles were compared with one another to judge the action.
# peritoneal macrophages = assay: Action on phagocytosis of peritoneal macrophage; format: in vivo, CDF1 mice (female, 8 weeks old); conditions: for T/C (phagocytosis of macrophage): peritoneal injection
# Description: The action of the inventive compound on the phagocytosis of macrophage was investigated.
# CDF1 mice (female, 8 weeks old) were each peritoneally injected with 2 ml of a thioglycolate medium to allow the peritoneal macrophages to be released. Four days after the injection, a compound of the invention (Compound No. 3 in Table 1) was peritoneally injected into each mouse in an amount ranging from 1 μg to 1 mg/mouse. 18 hours after the injection, the mice of each group was peritoneally washed with the Dulbecco phosphate buffer solution to collect the peritoneal macrophages, which were then suspended in a serum-free Dulbecco phosphate buffer solution and the suspension was placed in plastic petri dishes, followed by keeping in a 5% carbonic acid gas culture container at 37° C. for 2 hours to obtain adhesive cells. To the respective petri dishes containing the adhesive cells was added a solution of a germ Saccharomyces cervisiae. After having kept the temperature for 30 minutes, the germ solution was removed, followed by culturing 4 hours, washing, and subjecting to the Giemsa staining. Then, the number of cells phagocytizing the germ were counted under microscope to determine the effect of the compound*.
# *M. Ishizuka; S. Fukasawa, T. Masuda, J. Sato, N. Kanbayashi, T. Takeuchi & H. Umezawa; J. Antibiotics 32: 330-339, 1980.
# splenic cells = assay: Action on blastogenesis of splenic cells (3H-thymidine incorporation); format: cell-based, CDF1 mice (female, 10 weeks old)
# Description: (1) The splenic cells of CDF1 mice (female, 10 weeks old) were collected and were cultured in a 10% foetal calf serum-added RPMI 1640 medium adding a lectin such as Concanavalin A (Con A) or Lipopolysaccharide (LPS) and a compound of the invention (Compound No. 3 in Table 1), and the blasting effect was determined using as an index incorporation of ^3 H-thymidine into the cultured splenic cells.
# (2) The splenic cells of the mouse to which had been added different amounts of Con A or LPS and then 10 μg/ml of the inventive compound (Compound No. 3 in Table 3) were cultured to know the effect on the blasting reaction. […] Further, in order to know whichever lectin is greatly influenced by the compound of the invention for the potentiation, a stimulatory index* was calculated from the results of FIGS. 3a and 3b. […] [formula]
# myeloid cells = assay: Action on production of glanulocytic macrophage colony (CFU-C) at myeloid cell culture; format: cell-based, mouse
# Description: In accordance with the methods of Metcalf* and Stanley et al.**, the myeloid cells of mouse were cultured in soft agar to which a colony stimulating factor (CSF)*** and different amounts of a compound of the invention (Compound No. 3 in Table 1) to investigate the action on the glanulocytic macrophage colony.
# **Stanley, E. R., M. Cifone, P. M. Heard & V. Deffendi: J. Exp. Med. 143: 631-647, 1976.
# ***The mouse serum obtained 6 hours after venous injection of 5 μg of LPS into CDF1 mouse was added in an amount of 0.0125 ml as the colony stimulating factor.
# [4] = Solubility in water of salts; format: physicochemical; conditions: hydrochloride
# [5] = Mus musculus, Macrophage, read-out: T/C (CFU-C)
smiles,measurement,setting,value
c1ccc(C2Oc3ccccc3C3SCCN23)cc1 (stereo not shown) [Compound No. 1],LD50 at 168 h,Acute toxicity,500 mg/kg
"O=Cc1ccc(C2Oc3ccccc3C3SCCN23)cc1 (stereo not shown) [Compound No. 3, 4-(2,3-dihydro-5H,10bH-thiazolo[3,2-c][1,3]benzoxadine-5-yl)benzaldehyde]",Antibody production (in words),[1]; 100-400 μg/mouse,potentiate the antibody production
same,T/C (antibody-producing cells),[1]; 0.4 μg/mouse,106%
same,Number of antibody-producing cells/spleen (average value),[1]; 0.4 μg/mouse,"221,130"
same,T/C (antibody-producing cells),[1]; 1.6 μg/mouse,104%
same,Number of antibody-producing cells/spleen (average value),[1]; 1.6 μg/mouse,"217,890"
same,T/C (antibody-producing cells),[1]; 6.2 μg/mouse,91%
same,Number of antibody-producing cells/spleen (average value),[1]; 6.2 μg/mouse,"189,216"
same,T/C (antibody-producing cells),[1]; 25 μg/mouse,84%
same,Number of antibody-producing cells/spleen (average value),[1]; 25 μg/mouse,"176,040"
same,T/C (antibody-producing cells),[1]; 100 μg/mouse,191%
same,Number of antibody-producing cells/spleen (average value),[1]; 100 μg/mouse,"398,520"
same,T/C (antibody-producing cells),[1]; 400 μg/mouse,148%
same,Number of antibody-producing cells/spleen (average value),[1]; 400 μg/mouse,"308,610"
same,Time of administration after stimulation of antigen giving maximum potentiation,[2]; 100 μg/mouse oral,1 to 2 days
same,"Number of antibody-producing cells over non-administered groups (in words, FIG. 1)","[2]; 100 μg/mouse oral at day 0, 1, 2 or 3 after immunization",increased numbers of antibody-producing cells over the non-administered groups
same,Concentration range of significant potentiation of the antibody-producing action (FIG. 2),mouse's spleen cells,0.3 to 5 µg/mL
same,Delayed-type hypersensitivity vs non-administered control (in words),[3]; 4 μg to 1 mg/mouse,more pronounced potentiation on the delayed-type hypersensitivity than the non-administered control groups
same,T/C (sole swelling),[3]; 4 μg/mouse,231%
same,Thickness of Sole Swelling (± S.D.),[3]; 4 μg/mouse,14.8 ± 1.1 × 0.1 mm
same,T/C (sole swelling),[3]; 16 μg/mouse,150%
same,Thickness of Sole Swelling (± S.D.),[3]; 16 μg/mouse,9.6 ± 1.0 × 0.1 mm
same,T/C (sole swelling),[3]; 62 μg/mouse,181%
same,Thickness of Sole Swelling (± S.D.),[3]; 62 μg/mouse,11.6 ± 1.6 × 0.1 mm
same,T/C (sole swelling),[3]; 250 μg/mouse,198%
same,Thickness of Sole Swelling (± S.D.),[3]; 250 μg/mouse,12.7 ± 1.7 × 0.1 mm
same,T/C (sole swelling),[3]; 1000 μg/mouse,208%
same,Thickness of Sole Swelling (± S.D.),[3]; 1000 μg/mouse,13.3 ± 1.3 × 0.1 mm
same,Phagocytosis of macrophage (in words),peritoneal macrophages; 1 μg-100 μg/mouse,improve the phagocytosis of macrophage
same,T/C (phagocytosis of macrophage),peritoneal macrophages; 1 μg/mouse,127%
same,T/C (phagocytosis of macrophage),peritoneal macrophages; 10 μg/mouse,133%
same,T/C (phagocytosis of macrophage),peritoneal macrophages; 100 μg/mouse,137%
same,T/C (phagocytosis of macrophage),peritoneal macrophages; 1000 μg/mouse,115%
same,"Blasting reaction, FIGS. 3a and 3b (in words)","splenic cells; 10 μg/ml compound, Con A or LSP 0.5-8 μg/ml",potentiate the blasting reaction
same,"Stimulatory index Con A vs LPS, FIG. 4 (in words)","splenic cells; 10 μg/ml compound, calculated from FIGS. 3a and 3b",the Con A which is T-cell mitogen is more greatly acted with the compound than the LPS
same,Blasting reaction caused by the lectins (in words),"splenic cells; 10 μg/ml, Con A and LPS",accelerate the blasting reaction caused by the lectins including either of Con A and LPS
same,3H-thymidine incorporation into splenic cells,"splenic cells; compound 5 μg/ml, Con A (0.5 μg/ml)",2131 cpm/culture
same,3H-thymidine incorporation into splenic cells,"splenic cells; compound 5 μg/ml, LSP (0.5 μ/ml)",1068 cpm/culture
same,3H-thymidine incorporation into splenic cells,"splenic cells; compound 5 μg/ml, no lectin",148 cpm/culture
same,3H-thymidine incorporation into splenic cells,"splenic cells; compound 10 μg/ml, Con A (0.5 μg/ml)",9982 cpm/culture
same,3H-thymidine incorporation into splenic cells,"splenic cells; compound 10 μg/ml, LSP (0.5 μ/ml)",4007 cpm/culture
same,3H-thymidine incorporation into splenic cells,"splenic cells; compound 10 μg/ml, no lectin",811 cpm/culture
same,3H-thymidine incorporation into splenic cells,"splenic cells; compound 20 μg/ml, Con A (0.5 μg/ml)",1267 cpm/culture
same,3H-thymidine incorporation into splenic cells,"splenic cells; compound 20 μg/ml, LSP (0.5 μ/ml)",665 cpm/culture
same,3H-thymidine incorporation into splenic cells,"splenic cells; compound 20 μg/ml, no lectin",105 cpm/culture
same,Incorporation of 3H-thymidine without lectin (in words),splenic cells; culture free of any lectin,more or less expedites the incorporation of ^3 H-thymidine into the splenic cells
same,Number of CFU-C (±S.D.),myeloid cells; 0.001 μg/ml,140 ± 6
same,Number of CFU-C (±S.D.),myeloid cells; 0.01 μg/ml,156 ± 9
same,Number of CFU-C (±S.D.),myeloid cells; 0.1 μg/ml,189 ± 3
same,Number of CFU-C (±S.D.),myeloid cells; 1 μg/ml,221 ± 6
same,Number of CFU-C (±S.D.),myeloid cells; 10 μg/ml,144 ± 16
same,Production of CFU-C (in words),myeloid cells; 0.1 to 1 μg/ml,remarkably potentiate the production of CFU-C
same,activity at 0.001 µg/mL,myeloid cells; [5],103%
same,activity at 0.01 µg/mL,myeloid cells; [5],115%
same,activity at 0.1 µg/mL,myeloid cells; [5],139%
same,activity at 1 µg/mL,myeloid cells; [5],163%
same,activity at 10 µg/mL,myeloid cells; [5],106%
"O=Cc1ccc(C2Oc3ccccc3C3SCCN23)cc1 (stereo not shown) [hydrochloride of the compound No. 3, 4-(2,3-dihydro-5H,10bH-thiazolo[3,2-c][1,3]benzoxadine-5-yl)benzaldehyde (Compound No. 3) hydrochloride]",Solubility in water or physiological salt solution (in words),[4],soluble in water or physiological salt solution
